Assay results published in ChEMBL document CHEMBL1124048, “9-(trans-2',trans-3'-dihydroxycyclopent-4'-enyl) derivatives of adenine and 3-deazaadenine: potent inhibitors of bovine liver S-adenosylhomocysteine hydrolase” (J Med Chem, 1988).

Biological target: Adenosylhomocysteinase (Homo sapiens) (UniProt P23526)
Conditions: Bos taurus
Description: NAD+ content of the enzyme tetramer was measured by HPLC on a C 18 reverse-phase column

Chain of Adenosylhomocysteinase (Homo sapiens) (P23526 2-432 limits assumed): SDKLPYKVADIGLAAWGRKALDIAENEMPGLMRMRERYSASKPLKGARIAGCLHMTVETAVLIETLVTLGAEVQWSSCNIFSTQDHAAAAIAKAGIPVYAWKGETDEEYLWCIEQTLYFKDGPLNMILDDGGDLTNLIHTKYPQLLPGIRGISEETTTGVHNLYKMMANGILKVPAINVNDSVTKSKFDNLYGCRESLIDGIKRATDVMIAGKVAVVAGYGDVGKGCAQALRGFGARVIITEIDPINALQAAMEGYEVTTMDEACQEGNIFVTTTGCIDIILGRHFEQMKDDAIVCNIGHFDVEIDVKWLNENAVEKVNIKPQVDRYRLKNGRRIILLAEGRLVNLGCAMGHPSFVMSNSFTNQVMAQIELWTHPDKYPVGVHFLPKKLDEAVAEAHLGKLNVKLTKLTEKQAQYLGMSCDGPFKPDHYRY

NAD content (M (M of enzyme)-1) | Structure (SMILES)
0 | Nc1ncnc2c1ncn2[C@@H]1C=C(CO)[C@@H](O)[C@H]1O
0.19 | Nc1ncnc2c1ncn2[C@@H]1C=C[C@@H](O)[C@H]1O
